The term Ki denotes the equilibrium dissociation constant of an inhibitor or competing ligand from its target. Read a low Ki as tighter binding.

Two molecules from publication PMC11936226, “Tris inhibits a GH1 β-glucosidase by a linear mixed inhibition mechanism” (PLOS One, 2025) can be followed below.

Assay [1] concerns the target T1, Sfβgly (GH1 β-glucosidase) (Spodoptera frugiperda, UniProt O61594).
T1 construct: purified recombinant Sfβgly
The assay is described as follows: hydrolysis initial rates by purified enzyme (glucose detection). It counts as biochemical.

The target of assay [2] is T1, Sfβgly (GH1 β-glucosidase). The assay is described as follows: steady-state inhibition kinetics (Lineweaver-Burk) with NPβglc as substrate; also with cellobiose (Ki […]). It counts as biochemical.

T1 sequence (O61594 21-509): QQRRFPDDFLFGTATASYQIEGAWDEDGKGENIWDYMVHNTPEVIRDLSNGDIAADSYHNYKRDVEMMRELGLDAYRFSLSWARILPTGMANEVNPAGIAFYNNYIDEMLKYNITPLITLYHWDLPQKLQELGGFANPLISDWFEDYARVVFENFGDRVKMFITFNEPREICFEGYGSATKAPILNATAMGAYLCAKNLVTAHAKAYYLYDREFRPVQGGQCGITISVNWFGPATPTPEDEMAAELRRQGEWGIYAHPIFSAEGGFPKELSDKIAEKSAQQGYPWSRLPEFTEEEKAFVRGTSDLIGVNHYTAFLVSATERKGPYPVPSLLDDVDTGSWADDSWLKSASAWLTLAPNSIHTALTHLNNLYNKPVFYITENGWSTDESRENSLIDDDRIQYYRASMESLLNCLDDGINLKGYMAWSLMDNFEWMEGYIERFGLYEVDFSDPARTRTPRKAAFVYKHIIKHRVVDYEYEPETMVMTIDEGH

Take `OC[C@H]1O[C@@H](O[C@H]2[C@H](O)[C@@H](O)C(O)O[C@@H]2CO)[C@H](O)[C@@H](O)[C@@H]1O` (some centres unmarked) [C2, cellobiose]: the “hydrolysis initial rates by purified enzyme (glucose detection)” value in assay [1] is “The same experiment was repeated using C2, a natural substrate of Sfβgly, and two independent enzyme samples”.

`NC(CO)(CO)CO` [Tris, 2-amino-2-(hydroxymethyl)-1,3-propanediol] had a Ki in assay [2] of 12 ± 2 mM.
